These results are taken from US9622998B2, “Rapid-acting, blood-arginine-level-increasable oral preparation comprising citrulline and arginine” (Kyowa Hakko Bio Co., Ltd., priority 2007, dated 2017).

Experiment [1] deals with NO metabolite (NOx:NO2+NO3). Description: Plasma NO metabolite (NOx) after oral administration to rabbits (Experimental Example 2). The experiment is classed as in vivo. The conditions noted are these: male New Zealand rabbits, fasted 16 hr, oral by sonde, groups 1 and 2: 2.85 mmol/kg, group 3: 1.43 mmol/kg each. The protocol: (§1) 14-Week-old male New Zealand rabbits (KITAYAMA LABES Co., Ltd.) were purchased, preliminarily bred for 28 days and divided into 3 groups (n=3 or 4). After fasting for 16 hr, L-citrulline and L-arginine were orally administered to the rabbits of group 1 and group 2, respectively, by a sonde to achieve 2.85 mmol/kg per rabbit for both (499.3 mg/kg and 496.5 mg/kg, respectively). Moreover, L-citrulline and L-arginine were orally administered to the rabbits of group 3 by a sonde to achieve 1.43 mmol/kg per rabbit (250.5 mg/kg and 249.1 mg/kg, respectively).
(§2) The blood was collected from the ear vein before administration, and 30 min, 1, 2 and 4 hr after administration, and subjected to quantification of L-arginine, NO metabolite and cGMP in plasma. The blood was collected in a 1.5 mL tube containing 1% heparin dispensed thereto in advance (for quantification of L-arginine) and a disodium ethylenediaminetetraacetate (EDTA-2Na)-added tube (for quantification of NO metabolite and cGMP), and centrifuged (12000 rpm, 10 min, 4° C.) to give plasma. In heparin plasma thereafter, 3% sulfosalicylic acid in the same amount as the plasma was added and blended, and the mixture was stood still on ice for 1 hr and centrifuged (12000 rpm, 10 min, 4° C.) to give deproteinized plasma as a sample for analysis.
(§3) L-arginine in the sample for analysis was quantified using an automatic amino acid analyzer (JOEL JLC-500/V), NO metabolite (NOx:NO2+NO3) was quantified using a nitrogen oxide analyzer (Eicom ENO10), and cGMP was quantified by […] (Amersham Pharmacia RPN226).
(§4) Moreover, the area under the blood concentration-time curves of L-arginine, NO metabolite and cGMP in plasma were calculated, and the results are shown in Table 2-Table 4.

The subject of the next experiment is cGMP. Description: Plasma cGMP after oral administration to rabbits (Experimental Example 2). The experiment is classed as in vivo. The conditions noted are these: male New Zealand rabbits, fasted 16 hr, oral by sonde, groups 1 and 2: 2.85 mmol/kg, group 3: 1.43 mmol/kg each. The protocol:
as §1, §2, §3, §4

For the molecule `NC(=O)NCCC[C@H](N)C(=O)O` [group 1, L-citrulline], in experiment [1], the “AUC of NO metabolite in plasma, 0-30 min” value was 8.1 nmol·h/mL and the “AUC of NO metabolite in plasma, 0-1 hr” value is 25.7 nmol·h/mL. In the experiment with cGMP, the “AUC of cGMP in plasma, 0-30 min” value turned out to be 0.033 nmol·h/mL and the “AUC of cGMP in plasma, 0-1 hr” value was 0.12 nmol·h/mL.

Consider `N=C(N)NCCC[C@H](N)C(=O)O` [group 2, L-arginine], for which, in experiment [1], the “AUC of NO metabolite in plasma, 0-30 min” value is 0.3 nmol·h/mL and the “AUC of NO metabolite in plasma, 0-1 hr” value was 10.1 nmol·h/mL. In the experiment on cGMP, the “AUC of cGMP in plasma, 0-30 min” value worked out at 0.028 nmol·h/mL and the “AUC of cGMP in plasma, 0-1 hr” value is 0.10 nmol·h/mL.
